For this assay, the target named is T1, TMEM173 (Homo sapiens, UniProt Q86WV6, G230A/H232R/R293Q/R71H).
T1 construct: endogenous in cells; host or cells: THP-1 Lucia ISG cells
Kind of assay: ISRE-luciferase assay in THP-1 Lucia ISG cells. To be noted: 24 h. The class given is cell-based. The method, then: FIG. 12A is a pie chart showing the fraction of protein targets of active compounds with available crystal structures containing the corresponding liganded cysteine residues. FIG. 12B is a computer-generated model of BPK-21 and BPK-25 interactions with C91 of stimulator of interferon genes protein (STING, or TMEM173). FIG. 12C is a graph of IRF response of THP1-Lucia™ ISG cells. THP-1 Lucia ISG cells were treated with DMSO or BPK-25 in the presence of viral dsDNA (2 μg/mL) for 24 h and the levels of IRF-induced Lucia luciferase were determined using QUANTI-Luc™. Cell viability was measured using CellTiter-Glo™ assay. Luminescence signals for test samples were normalized to DMSO-treated samples and reported as relative light units (RLU)±SEM; n=3/group. […] Relative expression of IL-6, IL-1β, and IP10 (CXCL10) genes was measured by qPCR and normalized to actin. […] GFP-positive cells were further analyzed for CD25 and CD69 expression levels by measuring mean fluorescence intensity of the PE- (PE-CD25) and APC-channels (APC-CD69). […]
THP-1 Lucia ISG cells were resuspended in low-serum growth media (2% FBS) at a density of 5×10^5 cells/mL and treated with BPK-25 or vehicle (DMSO) in the presence of viral dsDNA (2 μg/mL). […] For each cell type and assay, luminescence signals for test article samples were normalized to vehicle-treated samples and reported as relative light units (RLU).

Results on one molecule are retold here after US20240131032A1, “AN ACTIVITY-GUIDED MAP OF ELECTROPHILE-CYSTEINE INTERACTIONS IN PRIMARY HUMAN IMMUNE CELLS” (The Scripps Research Institute, priority 2019, published 2024).

T1 sequence (Q86WV6 whole entry R71H/G230A/H232R/R293Q): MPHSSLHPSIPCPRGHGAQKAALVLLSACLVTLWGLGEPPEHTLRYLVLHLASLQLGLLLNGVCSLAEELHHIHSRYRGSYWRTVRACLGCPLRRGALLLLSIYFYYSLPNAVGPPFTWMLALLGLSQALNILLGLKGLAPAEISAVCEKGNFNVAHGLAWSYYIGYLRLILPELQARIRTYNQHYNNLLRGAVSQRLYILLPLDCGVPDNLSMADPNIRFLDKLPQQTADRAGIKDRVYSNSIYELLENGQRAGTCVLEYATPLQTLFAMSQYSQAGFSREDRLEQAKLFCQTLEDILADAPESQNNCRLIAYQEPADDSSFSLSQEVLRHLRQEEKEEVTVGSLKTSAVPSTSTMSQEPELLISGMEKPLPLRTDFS

For the molecule `C=CC(=O)N(Cc1cccc(Cl)n1)c1ccc(C(=O)Nc2ccccc2)nc1` [BPK-25], the “TMEM173 activation in human monocyte cell line THP1” value was “inhibited TMEM173 activation”.
